{"source": "patent US12377104B1", "about": "“Methods for treating a fatty liver disease” (Madrigal Pharmaceuticals, Inc., priority 2024, dated 2025)", "system": "adults with biopsy-confirmed NASH", "test": "MAESTRO-NASH: liver enzymes, imaging and biomarkers (MRI-PDFF, CAP, VCTE, MRE, liver and spleen volume, ELF)", "format": "in vivo, human", "conditions": "80 mg", "key": {"[1]": {"conditions": "wk 48, baseline ALT ≥30 U per liter"}, "[2]": {"conditions": "week 52, baseline ELF score ≥9.8"}, "[3]": {"conditions": "week 52, baseline PIIINP ≥9 ng/mL"}, "[4]": {"conditions": "week 52, baseline TIMP-I ≥240 ng/ml"}, "[5]": {"conditions": "week 52, baseline hyaluronic acid ≥50 ng/ml"}}}
{"molecule": "CC(C)c1cc(Oc2c(Cl)cc(-n3nc(C#N)c(=O)[nH]c3=O)cc2Cl)n[nH]c1=O", "note": "[Resmetirom, 2-(3,5-dichloro-4-((5-isopropyl-6-oxo-1,6-dihydropyridazin-3-yl)oxy)phenyl)-3,5-dioxo-2,3,4,5-tetrahydro-1,2,4-triazine-6-carbonitrile]", "values": [{"measurement": "Alanine aminotransferase level, difference from placebo", "setting": "wk 48", "result": "−19.7", "unit": "percentage points"}, {"measurement": "Aspartate aminotransferase level, difference from placebo", "setting": "wk 48", "result": "−19.3", "unit": "percentage points"}, {"measurement": "γ-Glutamyltransferase level, difference from placebo", "setting": "wk 48", "result": "−28.3", "unit": "percentage points"}, {"measurement": "Alanine aminotransferase level, least-squares mean percent change from baseline", "setting": "[1]", "result": "−26.6 ± 3.7", "unit": "%"}, {"measurement": "Aspartate aminotransferase level, least-squares mean percent change from baseline", "setting": "[1]", "result": "−22.1 ± 3.9", "unit": "%"}, {"measurement": "γ-Glutamyltransferase level, least-squares mean percent change from baseline", "setting": "[1]", "result": "−25.0 ± 5.5", "unit": "%"}, {"measurement": "MRI-PDFF, difference from placebo", "setting": "wk 52", "result": "−26.7", "unit": "percentage points"}, {"measurement": "MRI-PDFF, least-squares mean percent change from baseline", "setting": "wk 52", "result": "−35.4 ± 2.8", "unit": "%"}, {"measurement": "MRE ≥19% increase from BL, no. of patients", "setting": "F1B, responder analysis", "result": 0}, {"measurement": "MRE ≥19% reduction from BL, % of patients", "setting": "F1B, responder analysis", "result": "(20.0) %"}, {"measurement": "MRE ≥19% reduction from BL, no. of patients", "setting": "F1B, responder analysis", "result": 1}, {"measurement": "VCTE/LSM improving >25%, % of patients", "setting": "F1B, responder analysis", "result": "(50.0) %"}, {"measurement": "VCTE/LSM improving >25%, no. of patients", "setting": "F1B, responder analysis", "result": 6}, {"measurement": "VCTE/LSM improving ≥30%, % of patients", "setting": "F1B, responder analysis", "result": "(41.7) %"}, {"measurement": "VCTE/LSM improving ≥30%, no. of patients", "setting": "F1B, responder analysis", "result": 5}, {"measurement": "VCTE/LSM worsening ≥25%, % of patients", "setting": "F1B, responder analysis", "result": "(8.3) %"}, {"measurement": "VCTE/LSM worsening ≥25%, no. of patients", "setting": "F1B, responder analysis", "result": 1}, {"measurement": "VCTE/LSM worsening ≥30%, % of patients", "setting": "F1B, responder analysis", "result": "(8.3) %"}, {"measurement": "VCTE/LSM worsening ≥30%, no. of patients", "setting": "F1B, responder analysis", "result": 1}, {"measurement": "FibroScan VCTE/LSM, LS mean CFB", "setting": "F1B, week 52", "result": "−3.7", "unit": "kPa"}, {"measurement": "FibroScan VCTE/LSM, LS mean CFB difference from PBO", "setting": "F1B, week 52", "result": "−3.1", "unit": "kPa"}, {"measurement": "MRE, LS mean % CFB", "setting": "F1B, week 52", "result": "−5.7", "unit": "%"}, {"measurement": "MRE, LS mean % CFB difference from PBO", "setting": "F1B, week 52", "result": "−13.2", "unit": "%"}, {"measurement": "MRE ≥19% increase from BL, no. of patients", "setting": "F2, responder analysis", "result": 0}, {"measurement": "MRE ≥19% reduction from BL, % of patients", "setting": "F2, responder analysis", "result": "(35.0) %"}, {"measurement": "MRE ≥19% reduction from BL, no. of patients", "setting": "F2, responder analysis", "result": 7}, {"measurement": "VCTE/LSM improving ≥25%, % of patients", "setting": "F2, responder analysis", "result": "(44.0) %"}, {"measurement": "VCTE/LSM improving ≥25%, no. of patients", "setting": "F2, responder analysis", "result": 37}, {"measurement": "VCTE/LSM improving ≥30%, % of patients", "setting": "F2, responder analysis", "result": "(33.3) %"}, {"measurement": "VCTE/LSM improving ≥30%, no. of patients", "setting": "F2, responder analysis", "result": 28}, {"measurement": "VCTE/LSM worsening ≥25%, % of patients", "setting": "F2, responder analysis", "result": "(11.9) %"}, {"measurement": "VCTE/LSM worsening ≥25%, no. of patients", "setting": "F2, responder analysis", "result": 10}, {"measurement": "VCTE/LSM worsening ≥30%, % of patients", "setting": "F2, responder analysis", "result": "(8.3) %"}, {"measurement": "VCTE/LSM worsening ≥30%, no. of patients", "setting": "F2, responder analysis", "result": 7}, {"measurement": "FibroScan VCTE/LSM, LS mean CFB", "setting": "F2, week 52", "result": "−2.3", "unit": "kPa"}, {"measurement": "FibroScan VCTE/LSM, LS mean CFB difference from PBO", "setting": "F2, week 52", "result": 1.1, "unit": "kPa"}, {"measurement": "MRE, LS mean % CFB", "setting": "F2, week 52", "result": "−1.9", "unit": "%"}, {"measurement": "MRE, LS mean % CFB difference from PBO", "setting": "F2, week 52", "result": 4.0, "unit": "%"}, {"measurement": "MRE ≥19% increase from BL, % of patients", "setting": "F3, responder analysis", "result": "(3.6) %"}, {"measurement": "MRE ≥19% increase from BL, no. of patients", "setting": "F3, responder analysis", "result": 3}, {"measurement": "MRE ≥19% reduction from BL, % of patients", "setting": "F3, responder analysis", "result": "(26.2) %"}, {"measurement": "MRE ≥19% reduction from BL, no. of patients", "setting": "F3, responder analysis", "result": 22}, {"measurement": "VCTE/LSM improving ≥25%, % of patients", "setting": "F3, responder analysis", "result": "(41.1) %"}, {"measurement": "VCTE/LSM improving ≥25%, no. of patients", "setting": "F3, responder analysis", "result": 67}, {"measurement": "VCTE/LSM improving ≥30%, % of patients", "setting": "F3, responder analysis", "result": "(34.4) %"}, {"measurement": "VCTE/LSM improving ≥30%, no. of patients", "setting": "F3, responder analysis", "result": 56}, {"measurement": "VCTE/LSM worsening ≥25%, % of patients", "setting": "F3, responder analysis", "result": "(14.7) %"}, {"measurement": "VCTE/LSM worsening ≥25%, no. of patients", "setting": "F3, responder analysis", "result": 24}, {"measurement": "VCTE/LSM worsening ≥30%, % of patients", "setting": "F3, responder analysis", "result": "(12.9) %"}, {"measurement": "VCTE/LSM worsening ≥30%, no. of patients", "setting": "F3, responder analysis", "result": 21}, {"measurement": "FibroScan VCTE/LSM, LS mean CFB", "setting": "F3, week 52", "result": 2.0, "unit": "kPa"}, {"measurement": "FibroScan VCTE/LSM, LS mean CFB difference from PBO", "setting": "F3, week 52", "result": "−0.86", "unit": "kPa"}, {"measurement": "MRE, LS mean % CFB", "setting": "F3, week 52", "result": "−8.9", "unit": "%"}, {"measurement": "MRE, LS mean % CFB difference from PBO", "setting": "F3, week 52", "result": "−8.6", "unit": "%"}, {"measurement": "Liver volume, LS mean % CFB", "setting": "week 16", "result": "−18.8", "unit": "%"}, {"measurement": "Liver volume, LS mean % CFB difference from PBO", "setting": "week 16", "result": 18.5, "unit": "%"}, {"measurement": "MRI-PDFF % fat fraction, LS mean % CFB", "setting": "week 16", "result": "−37.8", "unit": "%"}, {"measurement": "MRI-PDFF % fat fraction, LS mean % CFB difference from PBO", "setting": "week 16", "result": "−31.4", "unit": "%"}, {"measurement": "Spleen volume, LS mean % CFB", "setting": "week 16", "result": "−2.4", "unit": "%"}, {"measurement": "Spleen volume, LS mean % CFB difference from PBO", "setting": "week 16", "result": "−3.9", "unit": "%"}, {"measurement": "ALT, LS mean % CFB", "setting": "week 48", "result": "−26.6", "unit": "%"}, {"measurement": "ALT, LS mean % CFB difference from PBO", "setting": "week 48", "result": "−19.7", "unit": "%"}, {"measurement": "ALT, LS mean CFB", "setting": "week 48", "result": "−20.4", "unit": "U/L"}, {"measurement": "AST, LS mean % CFB", "setting": "week 48", "result": "−22.1", "unit": "%"}, {"measurement": "AST, LS mean % CFB difference from PBO", "setting": "week 48", "result": "−19.3", "unit": "%"}, {"measurement": "AST, LS mean CFB", "setting": "week 48", "result": "−13.9", "unit": "U/L"}, {"measurement": "GGT, LS mean % CFB", "setting": "week 48", "result": "−25.0", "unit": "%"}, {"measurement": "GGT, LS mean % CFB difference from PBO", "setting": "week 48", "result": "−28.3", "unit": "%"}, {"measurement": "GGT, LS mean CFB", "setting": "week 48", "result": "−31.3", "unit": "U/L"}, {"measurement": "Adiponectin, LS mean CFB", "setting": "week 52", "result": 0.86, "unit": "µg/mL"}, {"measurement": "Adiponectin, LS mean CFB difference from PBO", "setting": "week 52", "result": 0.97, "unit": "µg/mL"}, {"measurement": "CK-18, LS mean CFB", "setting": "week 52", "result": "−278.2", "unit": "U/L"}, {"measurement": "CK-18, LS mean CFB difference from PBO", "setting": "week 52", "result": "−134.3", "unit": "U/L"}, {"measurement": "FibroScan CAP, LS mean CFB", "setting": "week 52", "result": "−39.6", "unit": "dB/m"}, {"measurement": "FibroScan CAP, LS mean CFB difference from PBO", "setting": "week 52", "result": "−25.2", "unit": "dB/m"}, {"measurement": "Liver volume, LS mean % CFB", "setting": "week 52", "result": "−21.6", "unit": "%"}, {"measurement": "Liver volume, LS mean % CFB difference from PBO", "setting": "week 52", "result": "−20.5", "unit": "%"}, {"measurement": "MRI-PDFF % fat fraction, LS mean % CFB", "setting": "week 52", "result": "−35.4", "unit": "%"}, {"measurement": "MRI-PDFF % fat fraction, LS mean % CFB difference from PBO", "setting": "week 52", "result": "−26.7", "unit": "%"}, {"measurement": "Spleen volume, LS mean % CFB", "setting": "week 52", "result": "−5.9", "unit": "%"}, {"measurement": "Spleen volume, LS mean % CFB difference from PBO", "setting": "week 52", "result": "−9.0", "unit": "%"}, {"measurement": "Enhanced liver fibrosis score, LS mean CFB", "setting": "[2]", "result": -0.34}, {"measurement": "Enhanced liver fibrosis score, LS mean CFB difference from PBO", "setting": "[2]", "result": "−0.22"}, {"measurement": "PIIINP, LS mean % CFB", "setting": "[3]", "result": "−10.7", "unit": "%"}, {"measurement": "PIIINP, LS mean % CFB difference from PBO", "setting": "[3]", "result": "−9.7", "unit": "%"}, {"measurement": "PIIINP, LS mean CFB", "setting": "[3]", "result": 2.0, "unit": "ng/mL"}, {"measurement": "PIIINP, LS mean CFB difference from PBO", "setting": "[3]", "result": -1.4, "unit": "ng/mL"}, {"measurement": "TIMP-I, LS mean % CFB", "setting": "[4]", "result": "−9.3", "unit": "%"}, {"measurement": "TIMP-I, LS mean % CFB difference from PBO", "setting": "[4]", "result": "−5.7", "unit": "%"}, {"measurement": "TIMP-I, LS mean CFB", "setting": "[4]", "result": -31.0, "unit": "ng/mL"}, {"measurement": "TIMP-I, LS mean CFB difference from PBO", "setting": "[4]", "result": -17.7, "unit": "ng/mL"}, {"measurement": "Hyaluronic acid, LS mean % CFB", "setting": "[5]", "result": 17.2, "unit": "%"}, {"measurement": "Hyaluronic acid, LS mean % CFB difference from PBO", "setting": "[5]", "result": "−7.6", "unit": "%"}, {"measurement": "Hyaluronic acid, LS mean CFB", "setting": "[5]", "result": 1.1, "unit": "µg/L"}]}
